{
  "source": "paper PMC4357444",
  "about": "“Accumulation of Squalene in a Microalga Chlamydomonas reinhardtii by Genetic Modification of Squalene Synthase and Squalene Epoxidase Genes” (PLoS ONE, 2015)",
  "target": "T1, CrSQS (Chlamydomonas reinhardtii, UniProt A0A2K3DXC5)",
  "T1 construct": "gene CHLRE_03g175250v5; Met-1 to Asp-397, C-terminal 64 residues (transmembrane region) removed; C-terminal 6xHis (pET-21b), E. coli BL21(DE3), TALON purified, 46 kDa",
  "T1 sequence (A0A2K3DXC5 entry or part of it)": "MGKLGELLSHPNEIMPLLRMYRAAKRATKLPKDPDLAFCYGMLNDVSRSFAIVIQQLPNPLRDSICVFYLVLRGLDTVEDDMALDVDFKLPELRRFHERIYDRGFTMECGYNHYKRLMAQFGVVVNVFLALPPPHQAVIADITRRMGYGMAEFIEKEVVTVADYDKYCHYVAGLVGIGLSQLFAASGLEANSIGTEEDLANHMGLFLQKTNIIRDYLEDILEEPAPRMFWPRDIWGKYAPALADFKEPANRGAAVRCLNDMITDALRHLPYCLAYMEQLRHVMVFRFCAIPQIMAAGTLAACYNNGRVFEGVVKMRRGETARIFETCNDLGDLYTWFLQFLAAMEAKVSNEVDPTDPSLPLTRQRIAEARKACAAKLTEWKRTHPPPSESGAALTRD",
  "experiment": "radiolabel TLC assay of squalene formation",
  "type": "biochemical",
  "details": "25 uM (1-14C) FPP, 2.5 mM NADPH, 5 mM MgCl2 or 2 mM MnCl2, pH 7.4, 30 °C; labelled compound; 2.5 mM NADPH (with glucose-6-phosphate dehydrogenase regeneration) against no NADPH",
  "data": [
    {"smiles": "NC(=O)C1=CN([C@@H]2O[C@H](COP(=O)(O)OP(=O)(O)OC[C@H]3O[C@@H](n4cnc5c(N)ncnc54)[C@H](OP(=O)(O)O)[C@@H]3O)[C@@H](O)[C@H]2O)C=CC1", "note": "[NADPH]", "values": [
      {"measurement": "radiolabel TLC assay of squalene formation", "result": "When NADPH was removed, radiolabeled squalene was not detected in any sample"}
    ]}
  ]
}
